{"source": "patent US20180036231A1", "about": "“PREVENTION OF AND RECOVERY FROM DRUG-INDUCED OTOTOXICITY” (Otonomy, Inc., priority 2011, published 2018)", "key": {"[1]": {"settings": "female, guinea pig, in vivo", "method": "(§1) Female guinea pigs (Charles River) weighing 200-300 g, of approximately 6-8 weeks of age are used (N=4 per group). Prior to any procedure, animals are anesthetized using a combination of xylazine (10 mg/kg), ketamine (40 mg/kg) and acepromazine (0.75 mg/kg) for up to an hour via the intramuscular route. If needed, an intraoperative booster is administered intraperitoneally representing one-tenth of the original dose. Intratympanic injection—Each animal is positioned so that the head is tilted at an angle to favor injection towards the round window niche. Briefly, under visualization with an operating microscope, 50 μl of formulations comprising 0.2-6% dexamethasone and varying concentrations of P407 are administered to the animals. […] During the procedure and until recovery, animals are placed on a temperature controlled (40° C.) heating pad until consciousness is regained at which time they are returned to the vivarium.\n(§2) The skin behind the ear of anesthetized guinea pigs is shaved and disinfected with povidone-iodine. An incision is then made behind the ear, and muscles are carefully retracted from over the bulla. A hole is drilled though the bulla using a dental burr so that the middle ear is exposed and accessible. The cochlea and the round window membrane are visualized under a stereo surgical microscope. A unique microhole is hand drilled through the bony shell of the cochlea (active capsule) adjacent to the round window. Perilymph (5 μl) is then collected using a microcapillary inserted into the cochlear scala tympani."}, "[2]": {"experiment": "In vitro dissolution / mean dissolution time (MDT) of active agent from formulation", "assay_type": "physicochemical", "procedure": "The release profile of compositions suitable for methods described herein is optionally determined using dissolution techniques. In one embodiment, dissolution is performed at 37° C. in snapwells (6.5 mm diameter polycarbonate membrane with a pore size of 0.4 μm), 0.2 mL of a gel formulation described herein (e.g., a gel formulation of Example 1) is placed into snapwell and left to harden, then 0.5 mL buffer is placed into reservoir and shaken using a Labline orbit shaker at 70 rpm. Samples are taken every hour (0.1 mL withdrawn and replace with warm buffer). Samples are analyzed for active agent concentration by UV at 245 nm against an external calibration standard curve. Pluronic concentration is analyzed at 624 nm using the cobalt thiocyanate method. Relative rank-order of mean dissolution time (MDT) as a function of % P407 is determined. […] A non-linear relationship indicates release of active agent via a combination of diffusion and/or polymer gel degradation.\nThe MDT is inversely proportional to the release rate of an active agent from a composition described herein. Experimentally, the released active agent is optionally fitted to the Korsmeyer-Peppas equation: […]\nwhere Q is the amount of active agent released at time t, Qα is the overall released amount of active agent, k is a release constant of the nth order, n is a dimensionless number related to the dissolution mechanism and b is the axis intercept, characterizing the initial burst release mechanism wherein n=1 characterizes an erosion controlled mechanism. The mean dissolution time (MDT) is the sum of different periods of time the drug molecules stay in the matrix before release, divided by the total number of molecules and is optionally calculated by: […]\nIn alternate embodiments, samples are analyzed using the method described by Li Xin-Yu paper [Acta Pharmaceutica Sinica 2008, 43(2):[…]] and Rank-order of mean dissolution time (MDT) as a function of % P407 is determined."}, "[3]": {"test_system": "Cisplatin induced hearing loss", "experiment": "Cisplatin induced ototoxicity model, intratympanic injection, hearing by ABR", "assay_type": "in vivo, guinea pig", "procedure": "Intratympanic injection of a formulation of Example 1 is administered the day before cisplatin administration. The lower right quadrant of the abdomen is shaved 1 inch and swabbed with alcohol. A tiny (2-3 mm) incision is made on the abdomen and a 21 G blunt needle is used to penetrate the abdominal wall and into the intraperitoneal cavity. The needle will be connected to an infusion bag containing cisplatin for a slow infusion of 15-30 minutes in the range of 5-15 mg/kg. The incision site is closed using sterile staples. Animals will be placed on a warming pad during the infusion and while recovering. In addition, animals receive twice daily IP injection of saline solution for 3 days to prevent nephrotoxicity.\nThe hearing of the animal is tested by recording the brainstem activity in response to a known auditory stimulus. (ABR: Auditory Brainstem Response) at various time points. This measurement is performed under general anesthesia. During the procedure the animal is placed on a heating pad (40° C.) in a sound proof booth and an earphone is fitted loosely into one ear at a time. Three subcutaneous needle electrodes are used to measure the brainstem activity. […] The recording then takes place, where the audio stimulus is applied at different frequencies and hearing thresholds, and the brainstem activity recorded."}, "[4]": {"experiment": "Inner ear (perilymph) pharmacokinetics after intratympanic administration in guinea pigs", "settings": "for methylprednisolone peak level in the perilymph: intratympanic administration of hydrogel", "method": "as §1, §2"}, "[5]": {"test_system": "noise induced hearing loss", "experiment": "Acoustic trauma / noise induced hearing loss model, intratympanic injection, hearing by ABR", "assay_type": "in vivo, guinea pig", "settings": "thermoreversible gel formulation, prophylactic intratympanic administration", "procedure": "The hearing of the animal is tested by recording the brainstem activity in response to a known auditory stimulus. (ABR: Auditory Brainstem Response) at various time points. This measurement is performed under general anesthesia. During the procedure the animal is placed on a heating pad (40° C.) in a sound proof booth and an earphone is fitted loosely into one ear at a time. Three subcutaneous needle electrodes are used to measure the brainstem activity. One is placed behind the ear with the earphone, one on the vertex of the skull and one in the hindleg. The recording then takes place, where the audio stimulus is applied at different frequencies and hearing thresholds, and the brainstem activity recorded.\nFollowing the procedure described in Example 9, a dexamethasone formulation is administered to guinea pigs prior to exposure to acoustic trauma. Hearing is evaluated as described in Example 8 above.\nFollowing the procedure described in Example 9, a SP600125 formulation is administered to guinea pigs prior to exposure to acoustic trauma. Hearing is evaluated as described in Example 9 above."}, "[6]": {"settings": "intratympanic administration in hydrogel vehicle"}}, "note": "Like-named read-outs stand apart in the source and are kept apart here.", "data": [{"compound": "CC(=O)OCC(=O)[C@@]1(O)[C@H](C)C[C@H]2[C@@H]3CCC4=CC(=O)C=C[C@]4(C)[C@@]3(F)[C@@H](O)C[C@@]21C", "note": "[DA, Dexamethasone acetate]", "values": [{"measurement": "inner ear exposure, dexamethasone in perilymph (AUC)", "setting": "[1]", "result": "84000 to 359000", "unit": "ng·h/mL"}, {"measurement": "residence time in inner ear compartment (MRT)", "setting": "[1]", "result": "17 to 82", "unit": "h"}]}, {"compound": "C[C@@H]1C[C@H]2[C@@H]3CCC4=CC(=O)C=C[C@]4(C)[C@@]3(F)[C@@H](O)C[C@]2(C)[C@@]1(O)C(=O)COP(=O)([O-])[O-].[Na+].[Na+]", "note": "[DSP]", "values": [{"measurement": "MDT (mean dissolution time)", "setting": "[2]; 17% Poloxamer 407 formulation", "result": "about 3 h"}, {"measurement": "MDT (mean dissolution time)", "setting": "[2]; aqueous solution", "result": 0.3, "unit": "h"}, {"measurement": "auditory function versus saline control, acute cisplatin ototoxicity", "setting": "[3]; 2.0% solution, single bilateral intratympanic injection one day before cisplatin 12 mg/kg, Day 7 post cisplatin", "result": "No significant differences"}, {"measurement": "inner ear exposure, dexamethasone in perilymph (AUC)", "setting": "[4]; [6]", "result": "28000 to 57000", "unit": "ng·h/mL"}, {"measurement": "residence time in inner ear compartment (MRT)", "setting": "[4]; [6]", "result": "4 to 7", "unit": "h"}]}, {"compound": "C[C@H]1C[C@@H]2[C@H]([C@@H](O)C[C@@]3(C)[C@H]2CC[C@]3(O)C(=O)CO)[C@@]2(C)C=CC(=O)C=C12", "note": "[MP, methylprednisolone]", "values": [{"measurement": "methylprednisolone peak level in the perilymph", "setting": "[4]", "result": 19.2, "unit": "µg/mL"}, {"measurement": "decline of perilymph levels after peak (in words)", "setting": "[4]; intratympanic hydrogel", "result": "decreased slowly over 10 days"}]}, {"compound": "C[C@H]1C[C@@H]2[C@H]([C@@H](O)C[C@@]3(C)[C@H]2CC[C@]3(O)C(=O)COC(=O)CCC(=O)[O-])[C@@]2(C)C=CC(=O)C=C12.[Na+]", "note": "[MPS]", "values": [{"measurement": "MDT (mean dissolution time)", "setting": "[2]; 17% Poloxamer 407 formulation", "result": "about 3 h"}, {"measurement": "methylprednisolone peak level in the perilymph", "setting": "[4]", "result": 6.5, "unit": "µg/mL"}, {"measurement": "perilymph level as fraction of the peak levels", "setting": "[4]; within 3 days after intratympanic hydrogel", "result": "0.8-1.0%"}]}, {"compound": "CC#C[C@]1(O)CC[C@H]2[C@@H]3CCC4=CC(=O)CCC4=C3[C@@H](c3ccc(N(C)C)cc3)C[C@@]21C", "note": "[Mifepristone]", "values": [{"measurement": "effect on dexamethasone gel protection against acute cisplatin ototoxicity", "setting": "[3]; 6.0% mifepristone + 6.0% dexamethasone gel, intratympanic, one day before cisplatin 12 mg/kg", "result": "antagonizes dexamethasone gel protection"}]}, {"compound": "O=C1c2ccccc2-c2n[nH]c3cccc1c23", "note": "[SP600125, anthra[1,9-cd]pyrazol-6(2H)-one]", "values": [{"measurement": "protection against acoustic trauma / prevention of hearing loss", "setting": "[5]", "result": "preventing hearing loss due to acoustic trauma"}]}, {"compound": "IGF-1: insulin-like growth factor, trophic agent/growth factor (PeproTech)", "values": [{"measurement": "protection against acoustic trauma / prevention of hearing loss", "setting": "[5]", "result": "protects against acoustic trauma"}]}]}
